For one data set, the system named is Anas platyrhynchos. Conditions: reproductive; duration: 20 weeks.
Another data set deals with Colinus virginianus. The note with it: acute, oral, mortality.
The test system of another data set is Hypoaspis aculeifer. The note with it: chronic/long-term; duration: 21 days; mortality.
The next data set has as its system Canidae. The note with it: oral, Dog Other, hematological.
A further data set deals with Pimephales promelas. Conditions: chronic/long-term; duration: 264 days; other.
For a further data set, the system named is Bibionidae. Conditions: chronic/long-term; duration: 28 days.
Another data set concerns Tagia sp. The note with it: chronic/long-term; duration: 56 days; mortality.
For the next data set, the system named is Apis mellifera. Conditions: acute, mortality.
The subject of the next data set is Typhlodromus pyri. As to the kind of experiment: LR50; higher = less toxic. The note with it: not reported; duration: 7 days; mortality.
The subject of a further data set is Poecilus cupreus. In words: LR50; higher = less toxic. The note with it: not reported; duration: 19 days; mortality.

The structures appear in SMILES notation.

One compound from EPA's ToxValDB 9.5 (doi:10.2903/j.efsa.2016.4518) can be followed below.

Broadly, the NOAEL is the highest tested level that showed no adverse finding. By LOAEL is commonly meant the lowest tested level that showed an adverse finding. As to `CON(C)C(=O)Nc1ccc(Cl)c(Cl)c1` [Linuron], the NOAEL with Anas platyrhynchos amounted to 13.9 mg/kg-day; with Canidae (chronic, duration: 1 years) it was 0.9 mg/kg-day; in the data set on Canidae (subchronic, duration: 90 days), 0.9 mg/kg-day; in the data set with Rattus norvegicus (reproduction developmental, body weight) it was 0.8 mg/kg-day. Besides, the LD50 in the data set on Colinus virginianus (diet) was 121 mg/kg-day; in the data set with Colinus virginianus, 314 mg/kg-day; in the data set on Rattus norvegicus (acute, oral, mortality) it was 1000 mg/kg; in the data set on Apis mellifera (dermal), > 97.8 µg/piece; in the data set on Apis mellifera (oral, unspecified), > 112 µg/piece. Also, the NOEC is 3.39 mg/kg in the data set on Hypoaspis aculeifer, 97 µg/L in the data set with Pimephales promelas, 9.5 mg/kg with Bibionidae and 6.78 mg/kg in the data set with Tagia sp.. In addition, the LOAEL in the data set on Rattus norvegicus (chronic, duration: 2 years, other) was 1.3 mg/kg-day. The results for the LR50 with Typhlodromus pyri and in the data set on Poecilus cupreus were 42.7 g/ha and > 927 g/ha, respectively.
